In general, inhibition of growth refers to how much of the control response was suppressed. What is called pest or weed control is how far the test organism was held down. A high value points to a strong effect.

Structures are written as SMILES.

The test system of assay [1] is Glomerella lagenarium syn Colletotrichum lagenarium. Briefly: Glomerella lagenarium syn. Colletotrichum lagenarium (anthracnose), liquid culture growth inhibition. It counts as cell-based. Particulars: Colletotrichum orbiculare, PDB nutrient broth, 24° C., 72 hrs, 620 nm, vs untreated control. The procedure:
(§1) Conidia of the fungus from cryogenic storage were directly mixed into nutrient broth (PDB potato dextrose broth). A DMSO solution of the test compounds was placed into a microtiter plate (96-well format) and the nutrient broth containing the fungal spores was added to it. The test plates were incubated at 24° C. and the inhibition of growth was determined photometrically after 72 hrs at 620 nm.

In assay [2] the test system is Botryotinia fuckeliana syn. Botrytis cinerea. Briefly: Botryotinia fuckeliana syn. Botrytis cinerea (gray mould), liquid culture growth inhibition. Particulars: PDB nutrient broth, 24° C., 72 hrs, photometric, vs untreated control. It counts as cell-based. The procedure: Conidia of the fungus from cryogenic storage were directly mixed into nutrient broth (PDB potato dextrose broth). A DMSO solution of the test compounds was placed into a microtiter plate (96-well format) and the nutrient broth containing the fungal spores was added to it. The test plates were incubated at 24° C. and the inhibition of growth was determined photometrically after 72 hrs.

Another assay has as its system Sclerotinia sclerotiorum. In words: Sclerotinia sclerotiorum (cottony rot, white mold), liquid culture growth inhibition. Particulars: PDB nutrient broth, 24° C., 72 hrs, 620 nm, vs untreated control. It counts as cell-based. The method, then:
Mycelial fragments of the fungus prepared from a fresh liquid culture were directly mixed into nutrient broth (PDB potato dextrose broth). A DMSO solution of the test compounds was placed into a microtiter plate (96-well format) and the nutrient broth containing the fungal spores was added to it. The test plates were incubated at 24° C. and the inhibition of growth was determined photometrically after 72 hrs at 620 nm.

Assay [3] has as its system Botryotinia fuckeliana syn. Botrytis cinerea. Briefly: Botryotinia fuckeliana syn. Botrytis cinerea (grey mold on tomato), tomato plants. It counts as in vivo. Particulars: tomato plants cv. Roter Gnom, inoculated two days after application, leaf area covered by disease 5-6 days after application. The method, then:
4-week old tomato plants cv. Roter Gnom are treated sprayed in a spray chamber with the formulated test compound diluted in water. The test plants are inoculated by spraying them with a spore suspension two days after application. The inoculated test plants are incubated at 20° C. and 95% rh in a greenhouse and the percentage leaf area covered by disease is assessed when an appropriate level of disease appears on untreated check plants (5-6 days after application).

Assay [4] deals with Monographella nivalis syn. Microdochium nivale, Fusarium nivale. In words: Monographella nivalis syn. Microdochium nivale (snow mould, foot rot), liquid culture growth inhibition. Particulars: PDB nutrient broth, 24° C., 72 hrs, 620 nm, vs untreated control. It counts as cell-based. The procedure:
as §1

In the case of `Cc1cccc(Oc2cnc(C)cc2C(=O)NCCc2ccc(Cl)cc2Cl)c1` [Compound 1.2, N-[2-(2,4-dichlorophenyl)ethyl]-2-methyl-5-(3-methylphenoxy) pyridine-4-carboxamide], the inhibition of growth at 20 ppm (in assay [1]; in assay [2]; with Sclerotinia sclerotiorum) was at least 80% throughout.

Regarding `O=C(NCC(F)c1ccc(Cl)cc1Cl)c1cc(Br)ncc1Oc1cccc(C2CC2)c1` (centres unmarked) [Compound 1.5, 2-bromo-5-(3-cyclopropyl-phenoxy)-N-[2-(2,4-dichlorophenyl)-2-fluoro-ethyl]pyridine-4-carboxamide], the inhibition of growth at 20 ppm (in assay [1]; in assay [2]; in the assay with Sclerotinia sclerotiorum) was at least 80% each time. For the same molecule, the pest or weed control at 200 ppm in assay [3] is at least 50%.

Consider `O=C(NCC(F)c1ccc(Cl)cc1Cl)c1c(Br)cncc1Oc1cccc(C2CC2)c1` (centres unmarked) [Compound 1.8, 3-bromo-5-(3-cyclopropyl-phenoxy)-N-[2-(2,4-dichlorophenyl)-2-fluoro-ethyl]pyridine-4-carboxamide], for which the inhibition of growth at 20 ppm (in assay [1]; in assay [2]; in the assay with Sclerotinia sclerotiorum) was at least 80% throughout. Moreover, the pest or weed control at 200 ppm in assay [3] was at least 50%.

Consider `O=C(NCCc1ccc(Cl)cc1Cl)c1c(Cl)cncc1Oc1cccc(C2CC2)c1` [Compound 1.21, 3-chloro-5-(3-cyclopropyl-phenoxy)-N-[2-(2,4-dichlorophenyl)ethyl]pyridine-4-carboxamide], for which the inhibition of growth at 20 ppm in assay [1] and in assay [2] was at least 80% throughout. Also, the pest or weed control at 200 ppm in assay [3] was at least 50%.

In the case of `O=C(NCC(F)c1ccc(Cl)cc1Cl)c1cc(C2CC2)ncc1Oc1cccc(C2CC2)c1` (centres unmarked) [Compound 1.22, 2-cyclopropyl-5-(3-cyclopropyl-phenoxy)-N-[2-(2,4-dichlorophenyl)-2-fluoro-ethyl]pyridine-4-carboxamide], the inhibition of growth at 20 ppm in assay [1] and in assay [2] was at least 80% each time. Moreover, the pest or weed control at 200 ppm in assay [3] is at least 50%.

In assay [4], `O=C(NCC1(c2ccc(F)cc2)CCC1)c1cc(Cl)ncc1Oc1cccc(C2CC2)c1` [Compound 1.28, 2-chloro-5-(3-cyclopropyl-phenoxy)-N-[[1-(4-fluorophenyl)cyclobutyl]methyl] pyridine-4-carboxamide] returned an inhibition of growth at 20 ppm of at least 80%.

Regarding `COc1ccc(CCNC(=O)c2cc(Cl)ncc2Oc2cccc(C3CC3)c2)cc1` [Compound 1.35, 2-chloro-5-(3-cyclopropyl-phenoxy)-N-[2-(4-methoxyphenyl)ethyl]pyridine-4-carboxamide], the inhibition of growth at 20 ppm in assay [1] and in assay [2] was at least 80% each time. This molecule yielded a pest or weed control at 200 ppm in assay [3] of at least 50%.

In turn, `Cc1ccccc1CCNC(=O)c1cc(Cl)ncc1Oc1cccc(C2CC2)c1` [Compound 1.36, 2-chloro-5-(3-cyclopropyl-phenoxy)-N-[2-(o-tolyl)ethyl]pyridine-4-carboxamide] returned an inhibition of growth at 20 ppm in assay [4] of at least 80%.

In the case of `C#Cc1cccc(Oc2cnc(Br)cc2C(=O)NCC(F)c2ccc(C)cc2C)c1` (centres unmarked) [Compound 1.43, 2-bromo-N-[2-(2,4-dimethylphenyl)-2-fluoro-ethyl]-5-(3-ethynylphenoxy) pyridine-4-carboxamide], the inhibition of growth at 20 ppm in assay [1] and in assay [2] was at least 80% in each case. The pest or weed control at 200 ppm in assay [3] is at least 50%.

For the molecule `COc1ccc(CCNC(=O)c2cc(Cl)ncc2Oc2ccccc2)cc1OC` [Compound 1.44, 2-chloro-N-[2-(3,4-dimethoxyphenyl)ethyl]-5-phenoxy-pyridine-4-carboxamide], in assay [4], the inhibition of growth at 20 ppm was at least 80%.

Regarding `Cc1cccc(Oc2cnc(Cl)cc2C(=O)NCCc2cccc(Cl)c2)c1` [Compound 1.46, 2-chloro-N-[2-(3-chlorophenyl)ethyl]-5-(3-methylphenoxy) pyridine-4-carboxamide], the inhibition of growth at 20 ppm in assay [1] and in assay [4] was at least 80% each time.

In assay [4], `O=C(NC1(Cc2ccccc2)CC1)c1cc(Cl)ncc1Oc1cccc(C2CC2)c1` [Compound 1.49, N-(1-benzylcyclopropyl)-2-chloro-5-(3-cyclopropylphenoxy) pyridine-4-carboxamide] registered an inhibition of growth at 20 ppm of at least 80%.

On to `Cc1cc(C)cc(CCNC(=O)c2cc(Cl)ncc2Oc2cccc(C3CC3)c2)c1` [Compound 1.50, 2-chloro-5-(3-cyclopropylphenoxy)-N-[2-(3,5-dimethylphenyl)ethyl]pyridine-4-carboxamide], for which the inhibition of growth at 20 ppm in assay [4] is at least 80%.

As to `O=C(NCC(F)c1ccc(F)cc1F)c1cc(Cl)ncc1Oc1cccc(C2CC2)c1` (centres unmarked) [Compound 1.58, 2-chloro-5-(3-cyclopropyl-phenoxy)-N-[2-(2,4-difluorophenyl)-2-fluoro-ethyl]pyridine-4-carboxamide], the inhibition of growth at 20 ppm in assay [1] and in assay [2] was at least 80% each time. This molecule came in with a pest or weed control at 200 ppm in assay [3] of at least 50%.

On to `Cc1ccc(C(F)CNC(=O)c2cc(C)ncc2Oc2cccc(C3CC3)c2)c(Cl)c1` (centres unmarked) [Compound 1.60, N-[2-(2-chloro-4-methyl-phenyl)-2-fluoro-ethyl]-5-(3-cyclopropyl-phenoxy)-2-methyl-pyridine-4-carboxamide], for which the inhibition of growth at 20 ppm in assay [1], in assay [2] and in assay [4] was at least 80% in each case. In assay [3], this molecule yielded a pest or weed control at 200 ppm of at least 50%.

`COc1cccc(Oc2cnc(Cl)cc2C(=O)NCC(F)c2ccc(Cl)cc2Cl)c1` (centres unmarked) [Compound 1.61, 2-chloro-N-[2-(2,4-dichlorophenyl)-2-fluoro-ethyl]-5-(3-methoxyphenoxy) pyridine-4-carboxamide]: the inhibition of growth at 20 ppm in assay [1] and in assay [2] was at least 80% throughout. The pest or weed control at 200 ppm in assay [3] was at least 50%.

Regarding `N#Cc1ccc(Oc2cnc(Cl)cc2C(=O)NCC(F)c2ccc(Cl)cc2Cl)cc1` (centres unmarked) [Compound 1.63, 2-chloro-5-(4-cyanophenoxy)-N-[2-(2,4-dichlorophenyl)-2-fluoro-ethyl]pyridine-4-carboxamide], the inhibition of growth at 20 ppm in assay [1] and in assay [4] was at least 80% each time.

Turning to `Cc1ccc(C(F)CNC(=O)c2cc(Cl)ncc2Oc2cccc(C3CC3)c2)c(C)c1` (centres unmarked) [Compound 1.78, 2-chloro-5-(3-cyclopropyl-phenoxy)-N-[2-(2,4-dimethylphenyl)-2-fluoro-ethyl]pyridine-4-carboxamide], the inhibition of growth at 20 ppm in assay [1], in assay [2] and in assay [4] was at least 80% in each case.

Consider `CCc1ccc(C(F)CNC(=O)c2cc(Cl)ncc2Oc2cccc(C3CC3)c2)c(F)c1` (centres unmarked) [Compound 1.80, 2-chloro-5-(3-cyclopropyl-phenoxy)-N-[2-(4-ethyl-2-fluoro-phenyl)-2-fluoro-ethyl]pyridine-4-carboxamide], for which the inhibition of growth at 20 ppm in assay [1] and in assay [2] was at least 80% throughout. The same molecule yielded a pest or weed control at 200 ppm in assay [3] of at least 50%.

As to `C#Cc1ccc(C(F)CNC(=O)c2cc(Cl)ncc2Oc2cccc(C3CC3)c2)c(F)c1` (centres unmarked) [Compound 1.82, 2-chloro-5-(3-cyclopropyl-phenoxy)-N-[2-(4-ethynyl-2-fluoro-phenyl)-2-fluoro-ethyl]pyridine-4-carboxamide], the inhibition of growth at 20 ppm in assay [1] and in assay [2] was at least 80% in each case. This molecule returned a pest or weed control at 200 ppm in assay [3] of at least 50%.

For the molecule `O=C(NCC(F)c1ccc(Cl)cc1Cl)c1c(Oc2cccc(C3CC3)c2)cncc1Oc1cccc(C2CC2)c1` (centres unmarked) [Compound 1.84, 3,5-bis(3-cyclopropyl-phenoxy)-N-[2-(2,4-dichlorophenyl)-2-fluoro-ethyl]pyridine-4-carboxamide], the inhibition of growth at 20 ppm in assay [1], in assay [2] and in assay [4] was at least 80% throughout. In assay [3], this molecule yielded a pest or weed control at 200 ppm of at least 50%.

In the case of `COc1cncc(Oc2cccc(C3CC3)c2)c1C(=O)NCC(F)c1ccc(Cl)cc1Cl` (centres unmarked) [Compound 1.91, 3-(3-cyclopropyl-phenoxy)-N-[2-(2,4-dichlorophenyl)-2-fluoro-ethyl]-5-methoxy-pyridine-4-carboxamide], the inhibition of growth at 20 ppm in assay [1] and in assay [2] was at least 80% throughout. The molecule further registered a pest or weed control at 200 ppm in assay [3] of at least 50%.

Consider `O=C(NCC(F)c1ccc(Cl)cc1Cl)c1c(O)cncc1Oc1cccc(C2CC2)c1` (centres unmarked) [Compound 1.96, 3-(3-cyclopropyl-phenoxy)-N-[2-(2,4-dichlorophenyl)-2-fluoro-ethyl]-5-hydroxy-pyridine-4-carboxamide], for which the inhibition of growth at 20 ppm (in assay [1]; in assay [2]; in assay [4]; in the assay with Sclerotinia sclerotiorum) was at least 80% throughout.

Source of the values: patent publication US20240182420A1, “MICROBIOCIDAL ISONICOTINIC AMIDE DERIVATIVES” (SYNGENTA CROP PROTECTION AG, priority 2021, published 2024).
